Data from US20230365563A1, “QUINAZOLINE COMPOUND AND APPLICATION THEREOF” (SHANGHAI PHARMACEUTICALS HOLDING CO., LTD., priority 2020, published 2023).
pIC50: −log10 of the molar value. Counter-ions that a name gives are not always drawn.

What was measured:
KRAS-G12D and SOS1 = target: T1, KRAS-G12D and SOS1 (Homo sapiens, UniProt P01116, G12D); test: Inhibition of KRAS-G12D/SOS1 binding (Cisbio binding kit, 665/615 ratio), Effect Embodiment A; conditions: read-out: GTP-KRAS-G12D:SOS1 IC50
T1 construct: purchased
Method in brief: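 Compounds underwent 3-fold dilution from their storage solutions (11 points), were transferred to assay wells in duplicate with DMSO held at 1% final, and were briefly centrifuged.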

KRAS_G12D and cRAF = target: T2, KRAS_G12D and cRAF (Homo sapiens, UniProt P01116, G12D); test: Inhibition of KRAS_G12D/cRAF binding (Cisbio binding kit, 665/615 ratio), Effect Embodiment B; conditions: read-out: GTP-KRAS-G12D:CRAF IC50
T2 construct: purchased
Procedure: (§1) Similarly, the first dilution point of the compound to be tested was its storage solution, and the solution was 3-fold diluted, with 11+0 points of dilution. Echo was used to transfer 0.2 μL gradient diluted solution of the compounds into a 384-well plate, with 2 duplicated wells for each compound, and the final concentration of DMSO was 1%. The solution was centrifuged for 1 min at 1000 rpm/min.
(§2) IC50 of the compounds was fitted by Graphpad Prism 8 nonlinear regression equation: […]
(§3) The IC50 (half inhibitory concentration) of the compound was obtained by using the following nonlinear fitting formula: […]

KRAS_WT and SOS1 = target: T3, KRAS_WT and SOS1 (Homo sapiens, UniProt P01116); test: Inhibition of KRAS_WT/SOS1 binding (Cisbio binding kit, 665/615 ratio), Effect Embodiment C; conditions: read-out: GTP-KRAS-WT:SOS1 IC50
T3 construct: purchased
Procedure: The inhibitory ability of small molecule compounds on the binding activity of KRAS_WT and SOS1 was examined by a drug screening system based on the combination of KRAS_WT and SOS1.
as §1, §2, §3

T2 sequence (P01116 1-188 isoform P01116-2 G12D): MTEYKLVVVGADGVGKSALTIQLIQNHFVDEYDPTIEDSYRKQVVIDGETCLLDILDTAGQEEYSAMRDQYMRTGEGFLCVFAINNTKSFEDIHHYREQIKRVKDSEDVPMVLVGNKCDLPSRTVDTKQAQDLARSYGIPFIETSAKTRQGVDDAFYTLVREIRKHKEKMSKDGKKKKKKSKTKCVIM
T1 sequence (P01116 1-188 isoform P01116-2 G12D): as above
T3 sequence (P01116 1-188 isoform P01116-2): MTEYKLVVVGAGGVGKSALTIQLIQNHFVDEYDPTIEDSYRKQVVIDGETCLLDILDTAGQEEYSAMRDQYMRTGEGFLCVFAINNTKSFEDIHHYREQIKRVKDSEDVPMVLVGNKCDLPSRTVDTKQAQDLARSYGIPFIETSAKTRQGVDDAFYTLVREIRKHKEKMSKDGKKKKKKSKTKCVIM

CN(C)C1CN(c2nc(N3CCNCC3)c3cc(Cl)c(-c4cc(O)cc5ccccc45)c(F)c3n2)C1 (single isomer, unassigned) [Comparative embodiment a, reference compound]
pIC50 (KRAS-G12D and SOS1): 5.87
pIC50 (KRAS_G12D and cRAF): 5.14

CN(C)C1CN(c2nc(N3C[C@@H]4C[C@H]3CN4)c3cc(Cl)c(-c4cc(O)cc5ccccc45)c(F)c3n2)C1 (single isomer, unassigned) [Compound 2a, (R or S)-4-(4-((1S,4S)-2,5-diazabicyclo [2.2.1]heptan-2-yl)-6-chloro-2-(3-(dimethylamino)azetidin-1-yl)-8-fluoro-quinazolin-7-yl)naphthalen-2-ol]
pIC50 (KRAS-G12D and SOS1): 6.61
pIC50 (KRAS_G12D and cRAF): 6.23
pIC50 (KRAS_WT and SOS1): 5.01

CN(C)C1CN(c2nc(N3C[C@@H]4CC[C@H]3CN4)c3cc(Cl)c(-c4cc(O)cc5ccccc45)c(F)c3n2)C1 (single isomer, unassigned) [Compound 4a, (R or S)-4-(4-((1S,4S)-2,5-diazabicyclo [2.2.2]octan-2-yl)-6-chloro-2-(3-(dimethylamino)azetidin-1-yl)-8-fluoro-quinazolin-7-yl)naphthalen-2-ol]
pIC50 (KRAS-G12D and SOS1): 7.43
pIC50 (KRAS_G12D and cRAF): 6.67
pIC50 (KRAS_WT and SOS1): 6.40

CN(C)C1CN(c2nc(N3C[C@H]4CC[C@@H](C3)N4)c3cc(Cl)c(-c4cc(O)cc5ccccc45)c(F)c3n2)C1 (single isomer, unassigned) [Compound 5a, (R or S)-4-(4-((1R,5S)-3,8-diazabicyclo [3.2.1]octan-3-yl)-6-chloro-2-(3-(dimethylamino)azetidin-1-yl)-8-fluoro-quinazolin-7-yl)naphthalen-2-ol]
pIC50 (KRAS-G12D and SOS1): 7.38
pIC50 (KRAS_G12D and cRAF): 6.60
pIC50 (KRAS_WT and SOS1): 5.74

CN(C)C1CN(c2nc(N3C4CC5CC3CC(C4)N5)c3cc(Cl)c(-c4cc(O)cc5ccccc45)c(F)c3n2)C1 (single isomer, unassigned) [Compound 34, 4-((S or R)-4-(2,6-diazaadamantan-2-yl)-6-chloro-2-(3-(dimethylamino)azetidin-1-yl)-8-fluoroquinazolin-7-yl)naphthalen-2-ol]
pIC50 (KRAS-G12D and SOS1): 6.73
pIC50 (KRAS_WT and SOS1): 6.55

CN(C)C1CN(c2nc(N3CCC4NCCC43)c3cc(Cl)c(-c4cc(O)cc5ccccc45)c(F)c3n2)C1 (single isomer, unassigned) [Compound 36, 4-((S or R)-6-chloro-2-(3-(dimethylamino)azetidin-1-yl)-8-fluoro-4-((3aS,6aS or 3aR,6aR)-hexahydropyrrolo [3,2-b]pyrrole-1(2H)-yl)quinazolin-7-yl)naphthalen-2-ol]
pIC50 (KRAS-G12D and SOS1): 6.56
pIC50 (KRAS_WT and SOS1): < 4.00

CO[C@H](COc1nc(N2CC3CCC(C2)N3)c2cc(Cl)c(-c3cc(O)cc4ccccc34)c(F)c2n1)CN1C2CCC1COC2 (single isomer, unassigned) [Compound 184, (4R or S)-4-(2-((2S)-3-(3-oxa-8-azabicyclo[3.2.1]octan-8-yl)-2-methoxypropoxy)-4-((1R,5S)-3,8-diazabicyclo[3.2.1]octan-3-yl)-6-chloro-8-fluoroquinazolin-7-yl)naphthalen-2-ol diformate]
pIC50 (KRAS-G12D and SOS1): 6.95
pIC50 (KRAS_G12D and cRAF): 6.34

Nc1cc(-c2c(Cl)cc3c(N4C[C@H]5CC[C@@H](C4)N5)nc(OCCCN4C5CCC4COC5)nc3c2F)c2ccccc2c1 (single isomer, unassigned) [Compound 192b, 4-((7S or 7R)-2-(3-(3-oxa-8-azabicyclo[3.2.1]octan-8-yl)propoxy)-4-((1R,5S)-3,8-diazabicyclo[3.2.1]octan-3-yl)-6-chloro-8-fluoroquinazolin-7-yl)naphthalen-2-amine tritrifluoroacetate]
pIC50 (KRAS-G12D and SOS1): 6.73
pIC50 (KRAS_G12D and cRAF): 6.37

CC(F)(COc1nc(N2CC3CCC(C2)N3)c2cc(Cl)c(-c3cc(O)cc4ccccc34)c(F)c2n1)CN1C2CCC1COC2 (single isomer, unassigned) [Compound 208a, ((4S or 4R)-4-(2-((2(R or S)-3-(3-oxa-8-azabicyclo[3.2.1]octan-8-yl)-2-fluoro-2-methylpropoxy)-4-((1R,5S)-3,8-diazabicyclo[3.2.1]octan-3-yl)-6-chloro-8-fluoroquinazolin-7-yl)naphthalen-2-ol formate]
pIC50 (KRAS-G12D and SOS1): 7.37
pIC50 (KRAS_G12D and cRAF): 6.96

CC(F)(COc1nc(N2CC3CCC(C2)N3)c2cc(Cl)c(-c3cc(O)cc4ccccc34)c(F)c2n1)CN1C2CCC1COC2 (single isomer, unassigned) [Compound 208b, (4S or 4R)-4-(2-((2(S or R)-3-(3-oxa-8-azabicyclo[3.2.1]octan-8-yl)-2-fluoro-2-methylpropoxy)-4-((1R,5S)-3,8-diazabicyclo[3.2.1]octan-3-yl)-6-chloro-8-fluoroquinazolin-7-yl)naphthalen-2-ol formate]
pIC50 (KRAS-G12D and SOS1): 7.01
pIC50 (KRAS_G12D and cRAF): 6.57

Oc1cc(-c2c(Cl)cc3c(N4CC5CCC(C4)N5)nc(OCC(CN4C5CCC4COC5)C4CC4)nc3c2F)c2ccccc2c1 (single isomer, unassigned) [Compound 209b, 4-((7S or 7R))-2-(2(S or R))-3-(3-oxa-8-azabicyclo[3.2.1]octan-8-yl)-2-cyclopropylpropoxy)-4-((1R,5S)-3,8-diazabicyclo[3.2.1]octan-3-yl)-6-chloro-8-fluoroquinazolin-7-yl)naphthalen-2-ol diformate]
pIC50 (KRAS-G12D and SOS1): 7.04
pIC50 (KRAS_G12D and cRAF): 6.53

Oc1cc(-c2c(Cl)cc3c(N4CC5CCC(C4)N5)nc(OCC(CN4C5CCC4COC5)C(F)(F)F)nc3c2F)c2ccccc2c1 (single isomer, unassigned) [Compound 218a, 4-((7S or 7R)-2-((2S or 2R)-2-((3-oxa-8-azabicyclo[3.2.1]octan-8-yl)methyl)-3,3,3-trifluoropropoxy)-4-((1R,5S)-3,8-diazabicyclo[3.2.1]octan-3-yl)-6-chloro-8-fluoroquinazolin-7-yl)naphthalen-2-ol diformate]
pIC50 (KRAS-G12D and SOS1): 7.04
pIC50 (KRAS_G12D and cRAF): 6.24

CC[C@@H]1CN(C[C@@H](C)COc2nc(N3CC4CCC(C3)N4)c3cc(Cl)c(-c4cc(O)cc5ccccc45)c(F)c3n2)C[C@H](CC)O1 (single isomer, unassigned) [Compound 219, 4-((S or R)-4-((1R,5S)-3,8-diazabicyclo[3.2.1]octan-3-yl)-6-chloro-2-((R)-3-((2R,6S)-2,6-diethylmorpholinyl)-2-methylpropoxy)-8-fluoroquinazolin-7-yl)naphthalen-2-ol formate]
pIC50 (KRAS-G12D and SOS1): 7.76
pIC50 (KRAS_G12D and cRAF): 7.67

C[C@@H](COc1nc(N2CC3CCC(C2)N3)c2cc(Cl)c(-c3cc(O)cc4ccccc34)c(F)c2n1)CN1C[C@H](C)O[C@@H](C)C1 (single isomer, unassigned) [Compound 220, 4-((S or R)-4-((1R,5S)-3,8-diazabicyclo[3.2.1]octan-3-yl)-6-chloro-2-((R)-3-((2S,6S)-2,6-dimethylmorpholinyl)-2-methylpropoxy)-8-fluoroquinazolin-7-yl)naphthalen-2-ol formate]
pIC50 (KRAS-G12D and SOS1): 7.71
pIC50 (KRAS_G12D and cRAF): 7.53

C[C@@H](COc1nc(N2CC3CCC(C2)N3)c2cc(Cl)c(-c3cc(O)cc4ccccc34)c(F)c2n1)CN1C[C@@H](C)OC[C@@H]1C (single isomer, unassigned) [Compound 226, 4-((S or R)-4-((1R,5S)-3,8-diazabicyclo[3.2.1]octan-3-yl)-6-chloro-2-((R)-3-((2R,5S)-2,5-dimethylmorpholinyl)-2-methylpropoxy)-8-fluoroquinazolin-7-yl)naphthalenol formate]
pIC50 (KRAS-G12D and SOS1): 7.17
pIC50 (KRAS_G12D and cRAF): 6.81

C[C@@H](COc1nc(N2CC3CCC(C2)N3)c2cc(Cl)c(-c3cc(B(O)O)cc4ccccc34)c(F)c2n1)CN1C2CCC1COC2 (single isomer, unassigned) [Compound 256, (4-((7S or 7R)-2-((2R)-3-(3-oxa-8-azabicyclo[3.2.1]octan-8-yl)-2-methylpropoxy)-4-((1R,5S)-3,8-diazabicyclo[3.2.1]octan-3-yl)-6-chloro-8-fluoroquinazolin-7-yl)naphthalen-2-yl)boronic acid ditrifluoroacetate]
pIC50 (KRAS-G12D and SOS1): 7.04
pIC50 (KRAS_G12D and cRAF): 6.45

CN(C)C1CN(c2nc(N3C[C@H]4CC[C@@H](C3)N4)c3cnc(-c4cc(O)cc5ccccc45)c(F)c3n2)C1 [Compound 78, 4-(4-((1R,5S)-3,8-diazabicyclo[3.2.1]octan-3-yl)-2-(3-(dimethylamino)azetidin-1-yl)-8-fluoropyridine[4,3-d]pyrimidin-7-yl)naphthalen-2-ol]
pIC50 (KRAS-G12D and SOS1): 7.35
pIC50 (KRAS_WT and SOS1): 6.07

CN1CCC[C@H]1COc1nc(N2CC3NC(C2)C2CC32)c2cnc(-c3cc(O)cc4ccccc34)c(F)c2n1 (stereo partly drawn) [Compound 158, 4-(8-Fluoro-2-((S)-1-methylpyrrolidin-2-yl)methoxy)-4-((1R,2R,4S,5S)-7,9-diazatricyclo[3.3.1.0^2,4]nonan-7-yl)pyridinyl[4,3-d]pyrimidin-7-yl)naphthalen-2-ol diformate]
pIC50 (KRAS-G12D and SOS1): 6.70

CN(C)CCCOc1nc(N2C[C@H]3CC[C@@H](C2)N3)c2ccn(-c3cc(O)cc4ccccc34)c(=O)c2n1 [Compound 161, 4-((1R,5S)-3,8-diazabicyclo[3.2.1]octan-3-yl)-2-(3-(dimethylamino)propoxy)-7-(3-hydroxynaphthalen-1-yl)pyrido[3,4-d]pyrimidin-8(7H)-one dihydrochloride]
pIC50 (KRAS-G12D and SOS1): < 5.00
